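Each compound was tested at five concentrations against cells in 96-well plates for 48 hours. GI50 is the concentration that inhibits growth by half.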 Calls of active or inactive are those of the source. Cut-off read from the data, not from the text of the source: active = GI50 up to about 1.1 µM and inactive = higher.
Experiments:
Assay in all cases: NCI tumour cell line growth inhibition, 48 h
NCI-H522 = tested on: NCI-H522
NCI-H460 = tested on: NCI-H460
HCT-116 = tested on: HCT-116
HT-29 = tested on: HT-29
ACHN = tested on: ACHN
NCI-H226 = tested on: NCI-H226
K562 = tested on: K562
OVCAR-5 = tested on: OVCAR-5
Hs-578T = tested on: Hs-578T
HCC 2998 = tested on: HCC 2998
CAKI-1 = tested on: CAKI-1
COLO 205 = tested on: COLO 205
SF-539 = tested on: SF-539
OVCAR-3 = tested on: OVCAR-3
NCI-H23 = tested on: NCI-H23
SN12C = tested on: SN12C
A549 = tested on: A549
HOP-62 = tested on: HOP-62
786-0 = tested on: 786-0
M14 = tested on: M14
TK-10 = tested on: TK-10
U-251 = tested on: U-251
OVCAR-4 = tested on: OVCAR-4
OVCAR-8 = tested on: OVCAR-8
SK-OV-3 = tested on: SK-OV-3
MDA-MB-231 = tested on: MDA-MB-231
T47D = tested on: T47D
IGROV-1 = tested on: IGROV-1
DU-145 = tested on: DU-145
EKVX = tested on: EKVX
UACC-257 = tested on: UACC-257
HCT-15 = tested on: HCT-15
CCRF-CEM = tested on: CCRF-CEM
KM12 = tested on: KM12
SF-268 = tested on: SF-268
MCF7 = tested on: MCF7
SNB-19 = tested on: SNB-19
SK-MEL-28 = tested on: SK-MEL-28
SF-295 = tested on: SF-295
BT-549 = tested on: BT-549
MOLT-4 = tested on: MOLT-4
LOX IMVI = tested on: LOX IMVI
Malme-3M = tested on: Malme-3M
SR = tested on: SR
HL-60 = tested on: HL-60
SK-MEL-2 = tested on: SK-MEL-2
MDA-MB-435 = tested on: MDA-MB-435
SNB-75 = tested on: SNB-75
UO-31 = tested on: UO-31
SW-620 = tested on: SW-620
NCI/ADR-RES = tested on: NCI/ADR-RES
RPMI-8226 = tested on: RPMI-8226
UACC-62 = tested on: UACC-62
SK-MEL-5 = tested on: SK-MEL-5
A498 = tested on: A498
PC-3 = tested on: PC-3

Measured: GI50

Nc1cc2[nH]c(=O)c3cc(Cl)ccc3c2cc1Cl
8.17 µM: HCT-15
inactive: NCI-H522 13.4 µM | NCI-H460 5 µM | HCT-116 5.15 µM | HT-29 22.3 µM | ACHN 6.59 µM | K562 23 µM | OVCAR-5 15.6 µM | Hs-578T 39.1 µM | HCC 2998 23.7 µM | CAKI-1 8.38 µM | COLO 205 43.9 µM | SF-539 12.2 µM | OVCAR-3 12.4 µM | NCI-H23 15.8 µM | SN12C 10.2 µM | A549 12.9 µM | HOP-62 16.8 µM | 786-0 14.8 µM | M14 36.8 µM | TK-10 11.8 µM | U-251 10.9 µM | OVCAR-4 31.9 µM | OVCAR-8 3 µM | SK-OV-3 3.98 µM | MDA-MB-231 14.1 µM | T47D 12.3 µM | IGROV-1 4.07 µM | DU-145 12 µM | EKVX 2.52 µM | UACC-257 21.1 µM | CCRF-CEM 18.7 µM | KM12 15.1 µM | SF-268 11.3 µM | SNB-19 8.47 µM | SK-MEL-28 60.4 µM | SF-295 9.12 µM | BT-549 > 100 µM | MOLT-4 4.11 µM | LOX IMVI 11.1 µM | Malme-3M 14.7 µM | SR 2.44 µM | HL-60 32.4 µM | SK-MEL-2 25 µM | MDA-MB-435 14.3 µM | SNB-75 15.5 µM | UO-31 10.2 µM | SW-620 8.55 µM | NCI/ADR-RES 13.3 µM | UACC-62 16.7 µM | SK-MEL-5 12.1 µM
active: NCI-H226 0.0649 µM | MCF7 0.149 µM | RPMI-8226 0.514 µM

COc1cc2nc(-c3cccs3)nc(Cl)c2cc1OC
active: SR 0.339 µM
inactive: NCI-H522 > 100 µM | NCI-H460 > 100 µM | HCT-116 > 100 µM | HT-29 61.7 µM | ACHN > 100 µM | NCI-H226 > 100 µM | K562 69.5 µM | OVCAR-5 > 100 µM | Hs-578T > 100 µM | CAKI-1 80.2 µM | COLO 205 > 100 µM | SF-539 > 100 µM | OVCAR-3 93.3 µM | NCI-H23 > 100 µM | SN12C > 100 µM | A549 > 100 µM | HOP-62 > 100 µM | A498 19.8 µM | 786-0 > 100 µM | M14 > 100 µM | TK-10 > 100 µM | U-251 > 100 µM | OVCAR-4 52.5 µM | OVCAR-8 > 100 µM | SK-OV-3 > 100 µM | MDA-MB-231 > 100 µM | T47D > 100 µM | IGROV-1 > 100 µM | PC-3 > 100 µM | DU-145 > 100 µM | EKVX 18.6 µM | UACC-257 68.9 µM | KM12 > 100 µM | SF-268 > 100 µM | MCF7 23.4 µM | SNB-19 > 100 µM | SK-MEL-28 > 100 µM | SF-295 > 100 µM | BT-549 > 100 µM | Malme-3M > 100 µM | HL-60 > 100 µM | SK-MEL-2 > 100 µM | MDA-MB-435 > 100 µM | SNB-75 > 100 µM | UO-31 > 100 µM | SW-620 > 100 µM | NCI/ADR-RES > 100 µM | UACC-62 > 100 µM | SK-MEL-5 12 µM
> 100 µM: HCT-15

— ChEMBL document CHEMBL1201862, “PubChem BioAssay data set” (2004)
